“And” between values parts separate entries of the source, which are not always exact repeats. Equal values may be shown once. Inconclusive results and toxic doses are left out. Starred links: 1 amine or outer side, 2 acyl side, 3 side chain; linkers in the order of their positions; H or OH if unused. Positions of bridges follow the written chain, without caps; N, C: chain ends. Non-standard residues stand in square brackets, D forms with d. Residues, ends and D or L forms follow the SMILES beside them. Chains are numbered I, II in the order given. ξ: configuration not given here. Actinocin(9to1) = Cc1c2oc3c(C)ccc(C(=O)[*:1])c3nc-2c(C(=O)[*:2])c(N)c1=O; ξPro(4ξ-Me) = CC1CNC(C(=O)O)C1; NMeV = CN[CH](C(=O)O)C(C)C; Sar = CNCC(=O)O
System: BDF1 mice, P388 leukemia ip, median survival T/C
Assay: NCI In Vivo Anticancer Drug Screen. Data for tumor model P388 Leukemia (intraperitoneal) in B6D2F1 (BDF1) mice
Details: endpoint: median survival time, higher = longer survival
Outline: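 Compound-treated tumour-bearing mice were compared with vehicle-treated controls. Survival was recorded, and the value is the treated-group measurement divided by the control-group measurement (T/C).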

[1] = dose: 100.0 mg/kg/injection, schedule: Q04DX003 (ip), vehicle: saline with Tween-80
[2] = dose: 200.0 mg/kg/injection, schedule: Q04DX003 (ip), vehicle: saline with Tween-80
[3] = dose: 400.0 mg/kg/injection, schedule: Q04DX003 (ip), vehicle: saline with Tween-80
[4] = dose: 100.0 mg/kg/injection, schedule: Q01DX009 (ip), vehicle: saline with Tween-80
[5] = dose: 200.0 mg/kg/injection, schedule: Q01DX009 (ip), vehicle: saline with Tween-80
[6] = dose: 50.0 mg/kg/injection, schedule: Q01DX009 (ip), vehicle: saline with Tween-80

In the case of `O=[N+]([O-])c1ccc(Cc2ccncc2)cc1`, the T/C (dose: 37.5 mg/kg/injection, schedule: Q01DX009 (ip), vehicle: saline sonified) is reported as 100 % of control, the T/C (dose: 75.0 mg/kg/injection, schedule: Q01DX009 (ip), vehicle: saline sonified) is reported as 95 % of control and the T/C (dose: 150.0 mg/kg/injection, schedule: Q01DX009 (ip), vehicle: saline sonified) is reported as 95 % of control.
In the case of `CCSCCCCSCC`, the T/C [1] is reported as 104 % of control, the T/C [2] is reported as 104 % of control and the T/C [3] is reported as 100 % of control.
`CC1=CC(c2ccc3c(c2)OCO3)c2c(c3ccccc3oc2=O)O1` (configuration not stated) was tested, and the T/C (dose: 12.5 mg/kg/injection, schedule: Q01DX009 (ip), vehicle: water) was 107 % of control, the T/C (dose: 100.0 mg/kg/injection, schedule: Q04DX003 (ip), vehicle: water) was 104 % of control and the T/C (dose: 200.0 mg/kg/injection, schedule: Q04DX003 (ip), vehicle: water) was 98 % of control. For the same compound, the T/C (dose: 400.0 mg/kg/injection, schedule: Q04DX003 (ip), vehicle: water) was 90 % of control.
In the case of `COC1CCCCC1Br` (configuration not stated), the T/C (dose: 100.0 mg/kg/injection, schedule: Q01DX009 (ip), vehicle: saline) is reported as 113 % of control, the T/C (dose: 200.0 mg/kg/injection, schedule: Q01DX009 (ip), vehicle: saline) is reported as 109 % of control and the T/C (dose: 400.0 mg/kg/injection, schedule: Q01DX009 (ip), vehicle: saline) is reported as 104 % of control.
`CC(C)c1nc(-c2ccccc2)c(-c2ccccc2)[nH]1` was tested, and the T/C [1] was 100 % of control, the T/C [2] was 104 % of control and the T/C [3] was 100 % of control.
In the case of `CC(=O)Nc1c(Cl)cc2c(c1Cl)Cc1cc([N+](=O)[O-])ccc1-2`, the T/C [4] is reported as 95 % of control, the T/C [1] is reported as 92 % of control and 95 % of control and the T/C [5] is reported as 95 % of control. For the same compound, the T/C [2] was 92 % of control and 95 % of control, the T/C (dose: 400.0 mg/kg/injection, schedule: Q01DX009 (ip), vehicle: saline with Tween-80) was 100 % of control and the T/C [3] was 91 % of control.
`CCOC1OCN(c2ccc(OC)cc2)CC1(C)C` (configuration not stated) was tested, and the T/C [6] was 98 % of control and 100 % of control, the T/C [4] was 113 % of control and 114 % of control and the T/C [5] was 116 % of control and 124 % of control.
For `Nc1nncs1`, the T/C (dose: 7.8 mg/kg/injection, schedule: Q01DX010 (ip), vehicle: saline) was 118 % of control, the T/C (dose: 12.5 mg/kg/injection, schedule: Q01DX010 (ip), vehicle: saline) was 100 % of control and the T/C (dose: 15.6 mg/kg/injection, schedule: Q01DX010 (ip), vehicle: saline) was 154 % of control. The T/C (dose: 25.0 mg/kg/injection, schedule: Q01DX010 (ip), vehicle: saline) was 163 % of control, the T/C (dose: 25.0 mg/kg/injection, schedule: Q04DX003 (ip), vehicle: saline) was 118 % of control and the T/C (dose: 50.0 mg/kg/injection, schedule: Q01DX010 (ip), vehicle: saline) was 190 % of control. For the same compound, the T/C (dose: 100.0 mg/kg/injection, schedule: Q01DX010 (ip), vehicle: saline) was 100 % of control, the T/C (dose: 100.0 mg/kg/injection, schedule: Q04DX003 (ip), vehicle: saline) was 172 % of control and the T/C (dose: 108.0 mg/kg/injection, schedule: Q04DX003 (ip), vehicle: saline) was 154 % of control. The T/C (dose: 173.0 mg/kg/injection, schedule: Q04DX003 (ip), vehicle: other) was 179 % of control, the T/C (dose: 180.0 mg/kg/injection, schedule: Q04DX003 (ip), vehicle: saline) was 208 % of control and the T/C (dose: 200.0 mg/kg/injection, schedule: Q04DX003 (ip), vehicle: saline) was 181 % of control. For the same compound, the T/C (dose: 288.0 mg/kg/injection, schedule: Q04DX003 (ip), vehicle: other) was 212 % of control.
With `Cc1cc(C)c(NS(=O)(=O)c2ccccc2)c(C)n1` the T/C [1] was 100 % of control, the T/C [2] was 91 % of control and the T/C [3] was 91 % of control.
`O=C(O)C1CCCC2C(O)CCC(=O)C12` (configuration not stated) was tested, and the T/C [4] was 100 % of control and the T/C [5] was 109 % of control.
In the case of `CN=C(N)c1ccc(N=C(N)c2ccc(-c3ccc(C(N)=Nc4ccc(C(N)=NC)cc4)cc3)cc2)cc1`, the T/C (dose: 3.0 mg/kg/injection, schedule: Q04DX003 (ip), vehicle: saline) is reported as 118 % of control, the T/C (dose: 3.12 mg/kg/injection, schedule: Q01DX009 (ip), vehicle: saline) is reported as 123 % of control and the T/C (dose: 5.5 mg/kg/injection, schedule: Q01DX009 (ip), vehicle: saline) is reported as 121 % of control. The T/C (dose: 6.0 mg/kg/injection, schedule: Q04DX003 (ip), vehicle: saline) was 118 % of control, the T/C (dose: 12.0 mg/kg/injection, schedule: Q04DX003 (ip), vehicle: saline) was 122 % of control and the T/C (dose: 12.5 mg/kg/injection, schedule: Q04DX003 (ip), vehicle: saline) was 115 % of control. The T/C (dose: 18.0 mg/kg/injection, schedule: Q01DX009 (ip), vehicle: saline) was 96 % of control.
In the case of `CCCn1c(=S)[nH]c2ccccc2c1=O`, the T/C (dose: 100.0 mg/kg/injection, schedule: Q01DX001 (ip), vehicle: Klucel (hydroxypropylcellulose) (HPC)) is reported as 100 % of control, the T/C (dose: 200.0 mg/kg/injection, schedule: Q01DX001 (ip), vehicle: Klucel (hydroxypropylcellulose) (HPC)) is reported as 100 % of control and the T/C (dose: 400.0 mg/kg/injection, schedule: Q01DX001 (ip), vehicle: Klucel (hydroxypropylcellulose) (HPC)) is reported as 100 % of control.
With `O=C(Nc1cccc(Br)c1)N1c2ccccc2SC12CCCC2` the T/C [6] was 89 % of control, the T/C [4] was 97 % of control and the T/C [5] was 106 % of control.
In the case of `O=c1c(Cl)c2cc3c(cc2c2ccccc12)nc1ccccc1n3-c1ccccc1`, the T/C (dose: 12.5 mg/kg/injection, schedule: Q01DX001 (ip), vehicle: saline with Tween-80) is reported as 88 % of control and the T/C (dose: 25.0 mg/kg/injection, schedule: Q01DX001 (ip), vehicle: saline with Tween-80) is reported as 88 % of control.
For `Cc1c2oc3c(C)ccc(C(=O)NC4C(=O)NC(C(C)C)C(=O)N5CC(C)CC5C(=O)N(C)CC(=O)N(C)C(C(C)C)C(=O)OC4C)c3nc-2c(C(=O)NC2C(=O)NC(C(C)C)C(=O)N3CC(C)CC3C(=O)N(C)CC(=O)N(C)C(C(C)C)C(=O)OC2C)c(N)c1=O` (configuration not stated) (I: TV[ξPro(4ξ-Me)][Sar][NMeV] / II: TV[ξPro(4ξ-Me)][Sar][NMeV]; ester I:1-I:C, II:1-II:C; linker I:N-II:N via Actinocin(9to1); configuration not given here), the T/C (dose: 1.3 mg/kg/injection, schedule: Q01DX009 (ip), vehicle: saline + alcohol) was 204 % of control, the T/C (dose: 2.16 mg/kg/injection, schedule: Q01DX009 (ip), vehicle: saline + alcohol) was 228 % of control and the T/C (dose: 3.24 mg/kg/injection, schedule: Q04DX003 (ip), vehicle: saline + alcohol) was 190 % of control and 161 % of control and 193 % of control. For the same compound, the T/C (dose: 3.6 mg/kg/injection, schedule: Q01DX009 (ip), vehicle: saline + alcohol) was 314 % of control, the T/C (dose: 5.4 mg/kg/injection, schedule: Q04DX003 (ip), vehicle: saline + alcohol) was 160 % of control and 219 % of control and the T/C (dose: 9.0 mg/kg/injection, schedule: Q04DX003 (ip), vehicle: saline + alcohol) was 160 % of control and 209 % of control and 99 % of control. For the same compound, the T/C (dose: 15.0 mg/kg/injection, schedule: Q04DX003 (ip), vehicle: saline + alcohol) was 104 % of control and 207 % of control, the T/C (dose: 288.0 micrograms/kg/injection, schedule: Q01DX009 (ip), vehicle: saline + alcohol) was 169 % of control and the T/C (dose: 480.0 micrograms/kg/injection, schedule: Q01DX009 (ip), vehicle: saline + alcohol) was 176 % of control. For the same compound, the T/C (dose: 800.0 micrograms/kg/injection, schedule: Q01DX009 (ip), vehicle: saline + alcohol) was 194 % of control, the T/C (dose: 864.0 micrograms/kg/injection, schedule: Q04DX003 (ip), vehicle: saline + alcohol) was 101 % of control and the T/C (dose: 2400.0 micrograms/kg/injection, schedule: Q04DX003 (ip), vehicle: saline + alcohol) was 167 % of control. The T/C (dose: 4000.0 micrograms/kg/injection, schedule: Q04DX003 (ip), vehicle: saline + alcohol) was 151 % of control and 194 % of control.
For `Cc1cnc2c(N)[nH]nc2n1`, the T/C (dose: 50.0 mg/kg/injection, schedule: Q04DX003 (ip), vehicle: Klucel (hydroxypropylcellulose) (HPC)) was 86 % of control, the T/C (dose: 100.0 mg/kg/injection, schedule: Q04DX003 (ip), vehicle: Klucel (hydroxypropylcellulose) (HPC)) was 109 % of control and the T/C (dose: 200.0 mg/kg/injection, schedule: Q04DX003 (ip), vehicle: Klucel (hydroxypropylcellulose) (HPC)) was 100 % of control.
With `O=C1NC(c2ccc3ccccc3n2)Nc2ccccc21` (configuration not stated) the T/C (dose: 100.0 mg/kg/injection, schedule: Q01DX009 (ip), vehicle: Klucel (hydroxypropylcellulose) (HPC)) was 105 % of control, the T/C (dose: 200.0 mg/kg/injection, schedule: Q01DX009 (ip), vehicle: Klucel (hydroxypropylcellulose) (HPC)) was 100 % of control and the T/C (dose: 400.0 mg/kg/injection, schedule: Q01DX009 (ip), vehicle: Klucel (hydroxypropylcellulose) (HPC)) was 110 % of control.

— PubChem BioAssay AID328 (DTP/NCI, 2004)
